Some results are limits rather than exact numbers.

The subject of the first experiment is recombinant NL4-3 virus (Renilla luciferase) in MT-2 cells. In words: HIV cell culture assay (antiviral activity, luciferase readout in infected MT-2 cells). The experiment is classed as cell-based. Particulars: Renilla, NL43, read-out: Activity, antiviral activity class, recombinant NL4-3 Renilla luciferase virus in MT-2 cells. The essentials:
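EC50 derived via median-effect equation from luciferase activity in MT-2 cells after 4–5 day infection, compound serially diluted. Virus: recombinant NL4-3 with Renilla luciferase replacing part of nef, made in 293T cells.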
As to `CCN(C(=O)[C@H](Cc1ccccc1)NC(=O)NS(=O)(=O)c1cccc(Cl)c1Cl)c1ccc(OC)cc1` [Example 119, (S)-2-(3-((2,3-dichlorophenyl)sulfonyl)ureido)-N-ethyl-N-(4-methoxyphenyl)-3-phenylpropanamide], the EC50 is less than 100 nM.
On the same count and under the same terms, under `CCN(C(=O)[C@H](Cc1ccccc1)NC(=O)NS(=O)(=O)c1cc(Br)ccc1C)c1ccc(OC)cc1` [Example 120, (S)-2-(3-((5-bromo-2-methylphenyl)sulfonyl)ureido)-N-ethyl-N-(4-methoxyphenyl)-3-phenylpropanamide] stands 100 to 1000 nM.
Still for that read-out and setting: the same measure for `CCN(C(=O)[C@H](Cc1ccccc1)NC(=O)NS(=O)(=O)c1cccc(-c2ccoc2)c1)c1ccc(OC)cc1` [Example 121, (S)—N-ethyl-2-(3-((3-(furan-3-yl)phenyl)sulfonyl)ureido)-N-(4-methoxyphenyl)-3-phenylpropanamide]: less than 100 nM.
For `CCN(C(=O)[C@H](Cc1ccccc1)NC(=O)NS(=O)(=O)c1cccc(-c2ccoc2)c1C)c1ccc(OC)cc1` [Example 122, (S)—N-ethyl-2-(3-((3-(furan-3-yl)-2-methylphenyl)sulfonyl)ureido)-N-(4-methoxyphenyl)-3-phenylpropanamide], the EC50 fell in the range of 100 to 1000 nM.
For `CCN(C(=O)[C@H](Cc1ccccc1)NC(=O)NS(=O)(=O)c1cc(-c2ccoc2)ccc1C)c1ccc(OC)cc1` [Example 123, (S)—N-ethyl-2-(3-((5-(furan-3-yl)-2-methylphenyl)sulfonyl)ureido)-N-(4-methoxyphenyl)-3-phenylpropanamide], the EC50 fell in the range of 100 to 1000 nM.
The same measure, in the same setting: the same measure for `CN(C(=O)[C@H](Cc1ccccc1)NC(=O)NS(=O)(=O)c1ccccc1-c1ccc(CO)cc1)c1ccc2c(c1)OCO2` [Example 124, (S)—N-(benzo[d][1,3]dioxol-5-yl)-2-(3-((4′-(hydroxymethyl)-[1,1′-biphenyl]-2-yl)sulfonyl)ureido)-N-methyl-3-phenylpropanamide]: 1000 to 10000 nM.
On the same count and under the same terms, under `CN(C(=O)[C@H](Cc1ccccc1)NC(=O)NS(=O)(=O)c1ccccc1-c1cccc(O)c1)c1ccc2c(c1)OCO2` [Example 125, (S)—N-(benzo[d][1,3]dioxol-5-yl)-2-(3-((3′-hydroxy-[1,1′-biphenyl]-2-yl)sulfonyl)ureido)-N-methyl-3-phenylpropanamide] stands 1000 to 10000 nM.
Same read-out and setting: under `COc1ccc(-c2ccccc2S(=O)(=O)NC(=O)N[C@@H](Cc2ccccc2)C(=O)N(C)c2ccc3c(c2)OCO3)cn1` [Example 126, (S)—N-(benzo[d][1,3]dioxol-5-yl)-2-(3-((2-(6-methoxypyridin-3-yl)phenyl)sulfonyl)ureido)-N-methyl-3-phenylpropanamide] stands 10000 to 100000 nM; under `CN(C(=O)[C@H](Cc1ccccc1)NC(=O)NS(=O)(=O)c1ccccc1-c1cncnc1)c1ccc2c(c1)OCO2` [Example 127, (S)—N-(benzo[d][1,3]dioxol-5-yl)-N-methyl-3-phenyl-2-(3-((2-(pyrimidin-5-yl)phenyl)sulfonyl)ureido)propanamide], 10000 to 100000 nM; under `CN(C(=O)[C@H](Cc1ccccc1)NC(=O)NS(=O)(=O)c1ccccc1-c1cccnc1)c1ccc2c(c1)OCO2` [Example 128, (S)—N-(benzo[d][1,3]dioxol-5-yl)-N-methyl-3-phenyl-2-(3-((2-(pyridin-3-yl)phenyl)sulfonyl)ureido)propanamide], 1000 to 10000 nM.
As for `COc1ncccc1-c1ccccc1S(=O)(=O)NC(=O)N[C@@H](Cc1ccccc1)C(=O)N(C)c1ccc2c(c1)OCO2` [Example 129, (S)—N-(benzo[d][1,3]dioxol-5-yl)-2-(3-((2-(2-methoxypyridin-3-yl)phenyl)sulfonyl)ureido)-N-methyl-3-phenylpropanamide], the EC50 lay within 1000 to 10000 nM.
Still for that read-out and setting: under `COc1ncc(-c2ccccc2S(=O)(=O)NC(=O)N[C@@H](Cc2ccccc2)C(=O)N(C)c2ccc3c(c2)OCO3)cn1` [Example 130, (S)—N-(benzo[d][1,3]dioxol-5-yl)-2-(3-((2-(2-methoxypyrimidin-5-yl)phenyl)sulfonyl)ureido)-N-methyl-3-phenylpropanamide] stands 1000 to 10000 nM; under `CN(C(=O)[C@H](Cc1ccccc1)NC(=O)NS(=O)(=O)c1ccccc1-c1ccc(C(N)=O)cc1)c1ccc2c(c1)OCO2` [Example 131, (S)-2′-(N-((1-(benzo[d][1,3]dioxol-5-yl(methyl)amino)-1-oxo-3-phenylpropan-2-yl)carbamoyl)sulfamoyl)-[1,1′-biphenyl]-4-carboxamide], 10000 to 100000 nM.
Same read-out and setting: the same measure for `CN(C(=O)[C@H](Cc1ccccc1)NC(=O)NS(=O)(=O)c1ccccc1-c1ccsc1)c1ccc2c(c1)OCO2` [Example 132, (S)—N-(benzo[d][1,3]dioxol-5-yl)-N-methyl-3-phenyl-2-(3-((2-(thiophen-3-yl)phenyl)sulfonyl)ureido)propanamide]: 10000 to 100000 nM; for `C=C(C)c1ccccc1S(=O)(=O)NC(=O)N[C@@H](Cc1ccccc1)C(=O)N(C)c1ccc2c(c1)OCO2` [Example 134, (S)—N-(benzo[d][1,3]dioxol-5-yl)-N-methyl-3-phenyl-2-(3-((2-(prop-1-en-2-yl)phenyl)sulfonyl)ureido)propanamide]: 1000 to 10000 nM.
On the same count and under the same terms, under `CC(C)c1ccccc1S(=O)(=O)NC(=O)N[C@@H](Cc1ccccc1)C(=O)N(C)c1ccc2c(c1)OCO2` [Example 135, (S)—N-(benzo[d][1,3]dioxol-5-yl)-2-(3-((2-isopropylphenyl)sulfonyl)ureido)-N-methyl-3-phenylpropanamide] stands 100 to 1000 nM; under `C=Cc1ccccc1S(=O)(=O)NC(=O)N[C@@H](Cc1ccccc1)C(=O)N(C)c1ccc2c(c1)OCO2` [Example 136, (S)—N-(benzo[d][1,3]dioxol-5-yl)-N-methyl-3-phenyl-2-(3-((2-vinylphenyl)sulfonyl)ureido)propanamide], less than 100 nM; under `C/C=C\c1ccccc1S(=O)(=O)NC(=O)N[C@@H](Cc1ccccc1)C(=O)N(C)c1ccc2c(c1)OCO2` [Example 137, (S,Z)—N-(benzo[d][1,3]dioxol-5-yl)-N-methyl-3-phenyl-2-(3-((2-(prop-1-en-1-yl)phenyl)sulfonyl)ureido)propanamide], 100 to 1000 nM.
On to `C=Cc1cccc(S(=O)(=O)NC(=O)N[C@@H](Cc2ccccc2)C(=O)N(CC)c2ccc(OC)cc2)c1` [Example 138, (S)—N-ethyl-N-(4-methoxyphenyl)-3-phenyl-2-(3-((3-vinylphenyl)sulfonyl)ureido)propanamide], for which the EC50 was less than 100 nM.
Still for that read-out and setting: under `C=C(C)c1cccc(S(=O)(=O)NC(=O)N[C@@H](Cc2ccccc2)C(=O)N(CC)c2ccc(OC)cc2)c1` [Example 139, (S)—N-ethyl-N-(4-methoxyphenyl)-3-phenyl-2-(3-((3-(prop-en-2-yl)phenyl)sulfonyl)ureido)propanamide] stands less than 100 nM.
Same read-out and setting: the same measure for `C/C=C\c1cccc(S(=O)(=O)NC(=O)N[C@@H](Cc2ccccc2)C(=O)N(CC)c2ccc(OC)cc2)c1` [Example 140]: less than 100 nM.
The same measure, in the same setting: under `CCc1cccc(S(=O)(=O)NC(=O)N[C@@H](Cc2ccccc2)C(=O)N(CC)c2ccc(OC)cc2)c1` [Example 141, (S)—N-ethyl-2-(3-((3-ethylphenyl)sulfonyl)ureido)-N-(4-methoxyphenyl)-3-phenylpropanamide] stands less than 100 nM.
In the case of `CCCc1cccc(S(=O)(=O)NC(=O)N[C@@H](Cc2ccccc2)C(=O)N(CC)c2ccc(OC)cc2)c1` [Example 142, (S)—N-ethyl-N-(4-methoxyphenyl)-3-phenyl-2-(3-((3-propylphenyl)sulfonyl)ureido)propanamide], the EC50 is less than 100 nM.
As for `CCN(C(=O)[C@H](Cc1ccccc1)NC(=O)NS(=O)(=O)c1cccc(C(C)C)c1)c1ccc(OC)cc1` [Example 143, (S)—N-ethyl-2-(3-((3-isopropylphenyl)sulfonyl)ureido)-N-(4-methoxyphenyl)-3-phenylpropanamide], the EC50 was less than 100 nM.
As to `CCc1ccc(C)c(S(=O)(=O)NC(=O)N[C@@H](Cc2ccccc2)C(=O)N(CC)c2ccc(OC)cc2)c1` [Example 144, (S)—N-ethyl-2-(3-((5-ethyl-2-methylphenyl)sulfonyl)ureido)-N-(4-methoxyphenyl)-3-phenylpropanamide], the EC50 was in the range of 100 to 1000 nM.
The same measure, in the same setting: under `CCCc1ccccc1S(=O)(=O)NC(=O)N[C@@H](Cc1ccccc1)C(=O)N(C)c1ccc2c(c1)OCO2` [Example 145, (S)—N-(benzo[d][1,3]dioxol-5-yl)-N-methyl-3-phenyl-2-(3-((2-propylphenyl)sulfonyl)ureido)propanamide] stands 100 to 1000 nM; under `CCc1ccccc1S(=O)(=O)NC(=O)N[C@@H](Cc1ccccc1)C(=O)N(C)c1ccc2c(c1)OCO2` [Example 146, (S)—N-(benzo[d][1,3]dioxol-5-yl)-2-(3-((2-ethylphenyl)sulfonyl)ureido)-N-methyl-3-phenylpropanamide], less than 100 nM; under `CCN(C(=O)[C@H](Cc1ccccc1)NC(=O)NS(=O)(=O)c1ccccc1N)c1ccc(OC)cc1` [Example 147, (S)-2-(3-((2-aminophenyl)sulfonyl)ureido)-N-ethyl-N-(4-methoxyphenyl)-3-phenylpropanamide], less than 100 nM.
The same measure, in the same setting: the same measure for `CN(C(=O)[C@H](Cc1ccccc1)NC(=O)NS(=O)(=O)c1ccccc1-c1ccc(F)nc1)c1ccc2c(c1)OCO2` [Example 148, (S)—N-(benzo[d][1,3]dioxol-5-yl)-2-(3-((2-(6-fluoropyridin-3-yl)phenyl)sulfonyl)ureido)-N-methyl-3-phenylpropanamide]: 1000 to 10000 nM.

The same experiment, now with this note: Renilla, NL43, recombinant NL4-3 Renilla luciferase virus in MT-2 cells.
Turning to `CCN(C(=O)[C@H](Cc1ccccc1)NC(=O)NS(=O)(=O)c1cc(-c2ccoc2)ccc1C)c1ccc(OC)cc1` [Example 123, (S)—N-ethyl-2-(3-((5-(furan-3-yl)-2-methylphenyl)sulfonyl)ureido)-N-(4-methoxyphenyl)-3-phenylpropanamide], the EC50 was 660 nM.
Take `CN(C(=O)[C@H](Cc1ccccc1)NC(=O)NS(=O)(=O)c1ccccc1-c1cncnc1)c1ccc2c(c1)OCO2` [Example 127, (S)—N-(benzo[d][1,3]dioxol-5-yl)-N-methyl-3-phenyl-2-(3-((2-(pyrimidin-5-yl)phenyl)sulfonyl)ureido)propanamide]: the EC50 stood at 21700 nM.
As for `COc1ncccc1-c1ccccc1S(=O)(=O)NC(=O)N[C@@H](Cc1ccccc1)C(=O)N(C)c1ccc2c(c1)OCO2` [Example 129, (S)—N-(benzo[d][1,3]dioxol-5-yl)-2-(3-((2-(2-methoxypyridin-3-yl)phenyl)sulfonyl)ureido)-N-methyl-3-phenylpropanamide], the EC50 came to 5520 nM.
The same measure, in the same setting: the same measure for `C=Cc1cccc(S(=O)(=O)NC(=O)N[C@@H](Cc2ccccc2)C(=O)N(CC)c2ccc(OC)cc2)c1` [Example 138, (S)—N-ethyl-N-(4-methoxyphenyl)-3-phenyl-2-(3-((3-vinylphenyl)sulfonyl)ureido)propanamide]: 50 nM; for `CCCc1cccc(S(=O)(=O)NC(=O)N[C@@H](Cc2ccccc2)C(=O)N(CC)c2ccc(OC)cc2)c1` [Example 142, (S)—N-ethyl-N-(4-methoxyphenyl)-3-phenyl-2-(3-((3-propylphenyl)sulfonyl)ureido)propanamide]: 60 nM.
Turning to `CCc1ccc(C)c(S(=O)(=O)NC(=O)N[C@@H](Cc2ccccc2)C(=O)N(CC)c2ccc(OC)cc2)c1` [Example 144, (S)—N-ethyl-2-(3-((5-ethyl-2-methylphenyl)sulfonyl)ureido)-N-(4-methoxyphenyl)-3-phenylpropanamide], the EC50 was found to be 620 nM.

The same experiment, now with this note: read-out: Activity; antiviral activity class, recombinant NL4-3 Renilla luciferase virus in MT-2 cells.
Turning to `CN(C(=O)[C@H](Cc1ccccc1)NC(=O)NS(=O)(=O)c1ccccc1-c1cnn(C)c1)c1ccc2c(c1)OCO2` [Example 133, (S)—N-(benzo[d][1,3]dioxol-5-yl)-N-methyl-2-(3-((2-(1-methyl-1H-pyrazol-4-yl)phenyl)sulfonyl)ureido)-3-phenylpropanamide], the EC50 was 100 to 1000 nM.

These data come from patent US10035760B2, “Inhibitors of human immunodeficiency virus replication” (priority 2013, dated 2018).
